# Test results taken from the supplement of paper PMC10307832.
# How the values were obtained:
# Experiment in all cases: relative viability (nuclei count vs DMSO), 5 days (fraction); higher = more cells survive
# KIN001-266 + Bortezomib = compound: CCN1CCC(CC1)N2C=C(N=N2)CNC3=CC4=C(C(=CN=C4C(=C3)Cl)C#N)NC5=CC(=C(C=C5)F)Cl [KIN001-266] + CC(C)C[C@H](NC(=O)[C@H](Cc1ccccc1)NC(=O)c1cnccn1)B(O)O [Bortezomib] (partner 0.002 µM)
# In short: (§1)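 Relative viability was taken as the ratio of nuclei in treated wells to nuclei in vehicle wells. Lung cancer cell lines in 1536-well plates received compounds by pin tool one day after seeding, either one drug alone or a fixed anchor-drug dose plus five library-drug doses (not always all listed) in √10 steps. Nuclei were counted on 4× images after 5 days of treatment, and values are medians of duplicate plates.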
# KIN001-266 + Navitoclax = compound: CCN1CCC(CC1)N2C=C(N=N2)CNC3=CC4=C(C(=CN=C4C(=C3)Cl)C#N)NC5=CC(=C(C=C5)F)Cl [KIN001-266] + CC1(C)CCC(c2ccc(Cl)cc2)=C(CN2CCN(c3ccc(C(=O)NS(=O)(=O)c4ccc(N[C@H](CCN5CCOCC5)CSc5ccccc5)c(S(=O)(=O)C(F)(F)F)c4)cc3)CC2)C1 [Navitoclax] (partner 0.5 µM)
# In short: as §1
# KIN001-266 + Dasatinib = compound: CCN1CCC(CC1)N2C=C(N=N2)CNC3=CC4=C(C(=CN=C4C(=C3)Cl)C#N)NC5=CC(=C(C=C5)F)Cl [KIN001-266] + Cc1nc(Nc2ncc(C(=O)Nc3c(C)cccc3Cl)s2)cc(N2CCN(CCO)CC2)n1 [Dasatinib] (partner 0.075 µM)
# In short: as §1
# KIN001-266 + Luminespib = compound: CCN1CCC(CC1)N2C=C(N=N2)CNC3=CC4=C(C(=CN=C4C(=C3)Cl)C#N)NC5=CC(=C(C=C5)F)Cl [KIN001-266] + CCNC(=O)c1noc(-c2cc(C(C)C)c(O)cc2O)c1-c1ccc(CN2CCOCC2)cc1 [Luminespib] (partner 0.01 µM)
# In short: as §1
Cell Line,relative viability (KIN001-266 + Bortezomib; first compound 0.08 µM),relative viability (KIN001-266 + Bortezomib; first compound 0.253 µM),relative viability (KIN001-266 + Bortezomib; first compound 0.8 µM),relative viability (KIN001-266 + Bortezomib; first compound 2.53 µM),relative viability (KIN001-266 + Bortezomib; first compound 8 µM),relative viability (KIN001-266 + Navitoclax; first compound 0.08 µM),relative viability (KIN001-266 + Navitoclax; first compound 0.253 µM),relative viability (KIN001-266 + Navitoclax; first compound 0.8 µM),relative viability (KIN001-266 + Navitoclax; first compound 2.53 µM),relative viability (KIN001-266 + Navitoclax; first compound 8 µM),relative viability (KIN001-266 + Dasatinib; first compound 0.08 µM),relative viability (KIN001-266 + Dasatinib; first compound 0.253 µM),relative viability (KIN001-266 + Dasatinib; first compound 2.53 µM),relative viability (KIN001-266 + Dasatinib; first compound 8 µM),relative viability (KIN001-266 + Dasatinib; first compound 0.8 µM),relative viability (KIN001-266 + Luminespib; first compound 0.08 µM),relative viability (KIN001-266 + Luminespib; first compound 0.253 µM),relative viability (KIN001-266 + Luminespib; first compound 0.8 µM),relative viability (KIN001-266 + Luminespib; first compound 2.53 µM),relative viability (KIN001-266 + Luminespib; first compound 8 µM)
HCC-78,0.57,0.261,0.464,0.495,0.616,0.812,0.807,0.758,0.88,0.775,0.566,0.421,0.361,0.38,–,–,–,–,–,–
HCC-366,1.04,1.06,0.996,0.998,1.01,0.923,1.05,1.07,1.11,1.12,0.783,0.591,0.656,0.656,0.627,–,–,–,–,–
HCC-827,1.09,1.03,–,1.07,1.09,1.02,1.08,–,0.971,0.981,0.349,0.317,0.275,0.229,–,0.659,0.38,0.509,0.841,0.362
HOP-62,0.563,0.565,0.575,0.779,1.07,1.11,1.02,1.06,1.05,0.95,0.662,0.686,0.675,0.55,0.601,0.906,0.923,0.876,0.944,0.787
IA-LM,0.838,0.729,0.94,0.736,0.674,0.948,0.619,0.731,0.935,0.561,–,–,–,–,–,–,–,–,–,–
LC-2-ad,0.954,0.948,1.02,1.03,0.956,0.763,0.429,0.473,0.415,0.479,0.661,0.533,0.8,0.632,0.626,0.943,1.19,1.13,1.06,0.931
LCLC-97TM1,0.679,0.595,0.489,0.731,0.337,0.506,0.365,0.247,0.398,0.333,0.905,0.812,0.746,0.848,0.825,0.953,0.77,0.643,0.603,0.24
LCLC-103H,1.18,1.15,1.08,1.08,0.986,–,–,–,–,–,0.538,0.494,0.519,0.452,0.436,0.96,1.01,0.95,0.923,0.695
LK-2,–,–,–,–,–,0.956,0.917,1.11,0.844,1.13,0.361,0.256,0.269,0.22,0.237,0.204,0.16,0.191,0.187,0.168
NCI-H358,–,–,–,–,–,–,–,–,–,–,0.148,0.171,0.137,0.116,0.173,0.496,0.251,0.237,0.306,0.123
NCI-H650,0.997,0.844,0.997,0.771,0.768,–,–,–,–,–,0.609,0.531,0.451,0.517,0.455,0.847,0.902,0.838,0.822,0.81
NCI-H661,0.784,0.755,0.878,0.837,0.566,–,–,–,–,–,0.897,1.01,0.894,0.657,0.847,0.887,0.946,0.968,0.915,0.559
NCI-H1299,1.02,1.01,0.984,0.962,0.882,1.04,1.04,0.995,1.01,0.897,–,–,–,–,–,–,–,–,–,–
NCI-H1395,–,–,–,–,–,1.15,1.26,1.25,1.1,0.938,0.413,0.388,0.418,0.429,0.43,0.829,0.76,0.619,0.545,0.659
NCI-H1563,0.951,0.982,0.846,0.855,0.809,–,–,–,–,–,0.468,0.524,0.458,0.553,0.447,0.496,0.498,0.534,0.602,0.524
NCI-H1703,0.378,0.317,0.296,0.273,0.291,0.987,1.08,1.13,0.875,0.632,–,–,–,–,–,–,–,–,–,–
NCI-H1793,–,–,–,–,–,0.516,0.491,0.401,0.388,0.429,0.332,0.389,0.329,0.369,0.391,0.231,0.436,0.171,0.194,0.196
NCI-H1944,–,–,–,–,–,1.03,1.05,0.991,1.04,1.04,0.244,0.215,0.214,0.209,0.187,0.73,0.771,0.708,0.744,0.68
NCI-H2170,–,–,–,–,–,0.598,0.549,0.623,0.647,0.605,0.422,0.505,0.594,0.576,0.571,0.704,0.801,0.675,0.739,0.568
NCI-H2342,–,–,–,–,–,–,–,–,–,–,0.298,0.303,0.264,0.31,0.258,0.745,0.716,0.689,0.721,0.865
SK-MES-1,–,–,–,–,–,1.25,1.17,1.11,1.04,0.858,0.418,0.356,0.337,0.247,0.357,0.783,0.779,1.06,0.739,0.427
SW 900,–,–,–,–,–,–,–,–,–,–,0.753,0.491,0.764,0.507,0.544,0.143,0.177,0.154,0.173,0.167
